In US6753323B2, “Topical administration of amifostine and related compounds” (MedImmune Oncology, Inc., priority 1998, dated 2004):

Columns and labels:
[1] = Radiation-induced mucositis in mice (inferior lip mucosa model, Parkins score); type: in vivo, C57BL/6 mice; conditions: C57BL/6, mouse, in vivo; IP, given before each fraction of radiation, mice; read-out: maximum tolerated dose
Method: (§1) The experimental murine model was developed by Parkins et al., Radiother. […] C57BL/6 mice 8-10 weeks old were used and fed with semi-liquid food. Unanesthetized mice were maintained in supine position and irradiated exclusively on the tip of the mouth. […] J. Radiat. Oncol. Biol. Phys., 8, 145-148 (1982). The irradiation was performed with an RT 250 Phillips apparatus, delivering 1.98 Gy/min (200 kV, 20 mA, filter of 0.2 mm Cu). During irradiation, a constant normobaric air renewal was maintained.
(§2) For the systemic applications, amifostine was dissolved in a […] solution 5 minutes before systemic IP injection of 200 to 400 mg/kg, which was administered 30 minutes before irradiation. A placebo solution of […] was used for a control group. For the topical applications, 50 mg of amifostine was dissolved in 1 mL of a solution containing 1% stearate, 5% H2O, and ammonia to adjust the pH of the solution to 8.8. The topical application was administered to the lip mucosa of the mice for a period of 30 minutes before each radiation session, and was maintained throughout the duration of irradiation. A single dose of 16.5 Gy, and a fractionated schedule delivering 24 Gy in 4 fractions over 2 days (with 8 hour intervals between fractions) were administered.
(§3) Four groups of eight mice were scored and weighed each day. Any mice having lost 30% or more of the initial weight was sacrificed. The effect of mucositis and weight loss were compared at the maximum of the acute reactions (day 11) among the different groups receiving or not receiving amifostine treatments, using the Mann and Whitney test.

[2] = tested on: inferior lip mucosa of the mice; experiment: as above; type: in vivo, C57BL/6 mice; conditions: for maximum grade of mucosal reactions: Parkins score
Method: as §1, §2, §3

[3] = tested on: five compendial organisms; experiment: Microbial growth inhibition, room temperature storage, summary over all test organisms; type: cell-based
Method: Amifostine was studied for its ability to inhibit microbial growth. Clear 10 cc vials, stoppers and seals were sterilized for use in the study. Two separate procedures were performed: a refrigerated storage study (2° to 8° C.) and a room temperature storage study (20° to 25° C.). For each test portion, positive controls were prepared for each organism by placing 9.5 mL sterile 0.9% sodium chloride into separate sterile vials and inoculating each with 10^3 to 10^4 of one of the test organisms. In addition, amifostine test specimens were prepared for each test portion by reconstituting six Ethyol® vials with 0.9% sodium chloride, the contents of each of these vials were then transferred to clear sterile vials to allow for easier visual examination. One vial was designated as a negative control, and each of the remaining five vials was inoculated with 10^3 to 10^4 of one of the test organisms. All vials were protected from light throughout the test to simulate the amber Ethyol® vial.
Positive controls, product test specimens, and a negative control were prepared. At this time, population counts were performed on each positive control. Population counts were also performed on positive controls and product test specimens at 24 and 48 hours. These samples were diluted with sterile water and plated in duplicate with a target of 30 to 300 colonies per plate. […]

murine skin = conditions: gauze with 10% solution in saline on murine skin 15 to 60 minutes, then 137Cs irradiation; cited from earlier work
small intestine of rats = conditions: 150 mg/mL in pH 9 Tris buffer, intralumenal; cited from earlier work

SMILES: NCCCNCCSP(=O)(O)O [amifostine, S-2-(3-aminopropylamino)ethyl dihydrogen phosphorothioate]
- MTD at 2 days [1]: 400 mg/kg
- maximum grade of mucosal reactions ([2]; 200 mg/kg IP 30 min before irradiation, 24 Gy in 4 fractions over 2 days, day 11, ± standard error): 3.5±0.2
- maximum grade of mucosal reactions ([2]; 400 mg/kg IP 30 min before irradiation, 24 Gy in 4 fractions over 2 days, day 11, ± standard error): 2.5±0.4
- grades of mucosal reactions compared to the control group ([2]; single dose of 16.5 Gy, IP and topical amifostine groups): significantly lower
- maximum grade of mucositis ([2]; topical 50 mg/mL solution pH 8.8 on lip mucosa 30 min before and during irradiation, 24 Gy in 4 fractions over 2 days, day 11, ± standard error): 3.9±0.2
- concentration of viable microorganisms at 24 hours [3]: reduced in four of the five compendial organisms
- radioprotective effect, topically applied (murine skin): no significant radioprotective effects
- radioprotection against intestinal mucositis (small intestine of rats): effective radioprotector
